Test results as given in PubChem BioAssay (NCI).
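Cultured in 96-well plates, cells were exposed to test compound for 48 hours across five concentrations. Abbreviation: GI50, concentration required for 50% inhibition of growth. TGI denotes the concentration required for complete inhibition of growth.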

Assays:
Assay in all cases: DTP human tumour cell line panel, 48 h
[1] = test system: U251 CNS
[2] = test system: TK-10 renal
[3] = test system: MALME-3M melanoma
[4] = test system: UACC-62 melanoma
[5] = test system: ACHN renal
[6] = test system: COLO 205 colon
[7] = test system: SNB-19 CNS
[8] = test system: SK-MEL-5 melanoma
[9] = test system: MCF7 breast
[10] = test system: RXF 393 renal

C#Cc1c(C)c(/C=C/C(C)=C/C(=O)OC)n(C)c1C
TGI [1]: > 100 µM | TGI [2]: > 100 µM | TGI [3]: > 100 µM | TGI [4]: > 100 µM | TGI [5]: > 100 µM | TGI [6]: > 100 µM | TGI [7]: > 100 µM

C=CC(=O)Nc1cc(N2CCN(CC)CC2)ccc1Nc1cc(N(C)C(=O)Nc2c(Cl)c(OC)cc(OC)c2Cl)ncn1
GI50 [2]: 10.6 µM | TGI [2]: 26 µM | GI50 [3]: 5.06 µM | TGI [3]: 19.3 µM | GI50 [8]: 11.3 µM | TGI [8]: 23.9 µM | GI50 [4]: 12.8 µM | TGI [4]: 27.3 µM | GI50 [9]: 2.7 µM | TGI [9]: 19.2 µM | GI50 [5]: 11.5 µM | TGI [5]: 23.8 µM | GI50 [6]: 4.16 µM | TGI [6]: 18.3 µM | GI50 [10]: 2.98 µM | TGI [10]: 9.76 µM | GI50 [7]: 5.05 µM | TGI [7]: 17.5 µM

c1ccc2c(c1)oc1ccc3nsnc3c12
TGI [2]: > 10 µM | TGI [3]: > 100 µM | TGI [8]: > 100 µM | TGI [4]: > 100 µM | TGI [5]: > 100 µM | TGI [6]: > 100 µM | TGI [10]: > 100 µM | TGI [7]: > 100 µM

O=S(=O)(NCn1ccc2ccccc21)c1ccccc1
TGI [1]: > 100 µM | TGI [2]: > 100 µM | TGI [3]: > 100 µM | TGI [8]: > 100 µM | TGI [4]: > 100 µM | TGI [5]: > 100 µM | TGI [6]: > 100 µM | TGI [10]: > 100 µM | TGI [7]: > 31.6 µM

NCCOCCOCCNc1nc(-c2ccc(Cl)cc2)nc(N2CCN(c3ccccn3)CC2)n1
GI50 [3]: 2.18 µM | TGI [3]: 4.18 µM | GI50 [8]: 1.71 µM | TGI [8]: 3.19 µM | GI50 [4]: 1.99 µM | TGI [4]: 3.91 µM | GI50 [5]: 2.48 µM | TGI [5]: 6.43 µM | GI50 [10]: 2.28 µM | TGI [10]: 5.76 µM

COc1cc(C)c(C2NC(=O)c3ccccc3N2)cc1C (configuration not stated)
TGI [1]: 13.9 µM | TGI [2]: > 100 µM | TGI [3]: > 100 µM | TGI [8]: 5.49 µM | TGI [4]: > 100 µM | TGI [9]: > 89 µM | TGI [5]: > 95.4 µM | TGI [6]: 4.64 µM | TGI [10]: 8.61 µM

CCCCCCCCNCCC[C@@H](C)[C@H]1CC[C@H]2[C@@H]3[C@H](OCCCN)C[C@H]4C[C@H](OCCCN)CC[C@]4(C)[C@H]3C[C@H](OCCCN)[C@]12C
GI50 [1]: 2.23 µM | TGI [1]: 6.32 µM | GI50 [2]: 1.79 µM | TGI [2]: 7.36 µM | GI50 [8]: 2.24 µM | TGI [8]: 6.54 µM | GI50 [4]: 1 µM | TGI [4]: 3.84 µM | GI50 [5]: 2.02 µM | TGI [5]: 6.41 µM | GI50 [6]: 2.6 µM | TGI [6]: 7.77 µM | GI50 [10]: 2.22 µM | TGI [10]: 16.4 µM | GI50 [7]: 1.69 µM | TGI [7]: 5.24 µM

O=C1C=CC(=O)c2c(O)c(NCCOCCO)c(Cl)c(O)c21
TGI [1]: 30.7 µM | TGI [2]: 26.6 µM | TGI [3]: 8.43 µM | TGI [8]: 4.47 µM | TGI [4]: 11.7 µM | TGI [5]: 28.7 µM | TGI [6]: 4.8 µM | TGI [10]: 27.1 µM

CC(=O)[O-].[Mn+3].[O-]c1ccccc1C=NCCNCCN=Cc1ccccc1[O-]
GI50 [1]: > 100 µM | TGI [1]: > 100 µM | GI50 [2]: > 100 µM | TGI [2]: > 100 µM | GI50 [3]: 58.1 µM | TGI [3]: > 100 µM | GI50 [8]: > 100 µM | TGI [8]: > 100 µM | GI50 [4]: > 100 µM | TGI [4]: > 100 µM | GI50 [5]: > 100 µM | TGI [5]: > 100 µM | GI50 [10]: > 100 µM | TGI [10]: > 100 µM | GI50 [7]: > 100 µM | TGI [7]: > 100 µM

CC1=Cc2ccc(C)cc2C(=O)C1=O
TGI [1]: 45.2 µM | TGI [2]: 3.68 µM | TGI [8]: 42.2 µM | TGI [4]: 40.3 µM | TGI [9]: 54.5 µM | TGI [5]: 4.14 µM | TGI [6]: 16.3 µM | TGI [10]: 3.27 µM | TGI [7]: 45.2 µM

Cc1c(-c2ccnc(N)n2)c2c(n1Cc1ccccc1)C(=O)c1ccccc1C2=O
GI50 [1]: 3.91 µM | TGI [1]: 36.2 µM | GI50 [2]: 17.3 µM | TGI [2]: 66.8 µM | GI50 [8]: 12.8 µM | TGI [8]: 27.8 µM | GI50 [4]: > 100 µM | TGI [4]: > 100 µM | GI50 [5]: 8.34 µM | TGI [5]: 36.8 µM | GI50 [6]: 15.5 µM | TGI [6]: 43.9 µM | GI50 [10]: 11.3 µM | TGI [10]: 38.2 µM | GI50 [7]: 18.1 µM | TGI [7]: > 100 µM

Cc1cc(N=C2C=C(Br)C(=O)C(Br)=C2)cc(CN(CC(=O)O)CC(=O)O)c1O
TGI [1]: > 100 µM | TGI [3]: > 100 µM | TGI [8]: > 100 µM | TGI [4]: > 100 µM | TGI [9]: > 100 µM | TGI [5]: > 100 µM | TGI [6]: > 100 µM | TGI [10]: > 100 µM | TGI [7]: > 100 µM

C=CCC1=C(C)C[C@@H]2CCC(=O)C=C12
TGI [1]: > 100 µM | TGI [2]: > 100 µM | TGI [3]: > 100 µM | TGI [8]: > 100 µM | TGI [4]: > 100 µM | TGI [5]: > 100 µM | TGI [6]: > 100 µM | TGI [10]: > 100 µM | TGI [7]: > 100 µM

Cc1cccc(C)c1NC(=O)CCc1nc(=S)[nH][nH]1
TGI [1]: > 100 µM | TGI [2]: > 100 µM | TGI [3]: > 100 µM | TGI [4]: > 100 µM | TGI [5]: > 100 µM | TGI [6]: > 100 µM | TGI [10]: > 100 µM | TGI [7]: > 100 µM

CC(=O)O[C@]1(C)OC(=O)[C@@H](CC(C)C)N1[N+](=O)[O-]
TGI [1]: > 100 µM | TGI [2]: > 100 µM | TGI [3]: > 100 µM | TGI [8]: > 100 µM | TGI [4]: > 100 µM | TGI [5]: > 100 µM | TGI [6]: > 100 µM | TGI [10]: > 100 µM | TGI [7]: > 100 µM

CC(=O)OCC(=O)[C@@]12OC(C)(C)O[C@@H]1C[C@H]1[C@@H]3CC(C=O)=C4C=C(OCCCl)CC[C@]4(C)[C@@]3(F)[C@@H](O)C[C@@]12C
TGI [1]: 48.5 µM | TGI [2]: > 100 µM | TGI [3]: 70.3 µM | TGI [4]: > 100 µM | TGI [5]: > 100 µM | TGI [6]: 34.9 µM | TGI [10]: 21.6 µM | TGI [7]: > 100 µM

Cc1nc(Nc2ccccn2)sc1C(=O)/C=C/c1ccc(Cl)cc1
GI50 [1]: 0.37 µM | TGI [1]: > 47.3 µM | GI50 [2]: 1.09 µM | TGI [2]: 24.4 µM | GI50 [3]: 0.734 µM | TGI [3]: 43.8 µM | GI50 [8]: 0.339 µM | TGI [8]: 1.43 µM | GI50 [4]: 0.631 µM | TGI [4]: 49.8 µM | GI50 [9]: 0.344 µM | TGI [9]: > 100 µM | GI50 [5]: 0.559 µM | TGI [5]: 31 µM | GI50 [6]: 0.322 µM | TGI [6]: 1.35 µM | GI50 [7]: 0.556 µM | TGI [7]: > 100 µM

CCCC(=O)N[C@H]1C2C3CC4C5CC(C42)C1(C)C53 (some centres not stated)
TGI [1]: > 100 µM | TGI [2]: > 100 µM | TGI [3]: > 100 µM | TGI [8]: > 100 µM | TGI [4]: > 100 µM | TGI [5]: > 100 µM | TGI [6]: > 100 µM | TGI [10]: > 100 µM | TGI [7]: > 100 µM

O=c1ncccn1C1OC(CO)C(O)C1O (configuration not stated)
TGI [1]: > 100 µM | TGI [2]: > 100 µM | TGI [3]: > 100 µM | TGI [4]: > 100 µM | TGI [5]: > 100 µM | TGI [6]: > 100 µM | TGI [10]: > 100 µM | TGI [7]: > 100 µM

COc1ccc(CCn2c(=O)c3ccccc3n(C)c2=O)cc1
TGI [1]: > 100 µM | TGI [2]: > 100 µM | TGI [3]: > 100 µM | TGI [8]: > 100 µM | TGI [4]: > 100 µM | TGI [5]: > 100 µM | TGI [6]: 50.1 µM | TGI [7]: > 100 µM
